Series [1] has as its target T1, Solute carrier organic anion transporter family member 4C1 (Homo sapiens, UniProt Q6ZQN7).
T1 sequence (Q6ZQN7 whole entry): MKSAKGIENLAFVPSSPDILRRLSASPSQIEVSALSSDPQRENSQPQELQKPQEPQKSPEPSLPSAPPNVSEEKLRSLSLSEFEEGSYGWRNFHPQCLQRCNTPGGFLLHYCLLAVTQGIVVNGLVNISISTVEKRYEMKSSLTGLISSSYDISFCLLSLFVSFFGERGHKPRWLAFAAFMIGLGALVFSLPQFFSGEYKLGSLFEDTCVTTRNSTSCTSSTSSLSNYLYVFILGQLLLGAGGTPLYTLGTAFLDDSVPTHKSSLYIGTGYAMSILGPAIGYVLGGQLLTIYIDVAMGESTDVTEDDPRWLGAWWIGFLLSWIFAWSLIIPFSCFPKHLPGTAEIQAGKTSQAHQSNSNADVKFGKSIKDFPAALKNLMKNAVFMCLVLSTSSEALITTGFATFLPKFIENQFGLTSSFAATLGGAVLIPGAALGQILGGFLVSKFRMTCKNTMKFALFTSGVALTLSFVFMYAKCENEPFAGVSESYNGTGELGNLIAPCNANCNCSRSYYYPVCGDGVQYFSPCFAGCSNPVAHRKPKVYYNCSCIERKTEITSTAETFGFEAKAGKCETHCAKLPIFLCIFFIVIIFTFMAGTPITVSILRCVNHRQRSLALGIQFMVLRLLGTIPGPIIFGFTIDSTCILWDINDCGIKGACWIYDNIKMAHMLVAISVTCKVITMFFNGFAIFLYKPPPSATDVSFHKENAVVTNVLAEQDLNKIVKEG
Briefly: TP_TRANSPORTER: inhibition of Digoxin uptake in OATP4C1-expressing MDCK cells. Type of series: functional, cell-based.

For series [2], the target named is T1, Solute carrier organic anion transporter family member 4C1. As to the kind of experiment: TP_TRANSPORTER: inhibition of Triiodothyronine uptake in OATP4C1-expressing MDCK cells. Type of series: functional, cell-based.
Substrate in series [3]: N[C@@H](Cc1cc(I)c(Oc2ccc(O)c(I)c2)c(I)c1)C(=O)O
As to the kind of experiment: cells, lysate or membranes named.

Substrate in series [4]: C[C@H]1O[C@@H](O[C@H]2[C@@H](O)C[C@H](O[C@H]3[C@@H](O)C[C@H](O[C@H]4CC[C@@]5(C)[C@H](CC[C@@H]6[C@@H]5C[C@@H](O)[C@]5(C)[C@@H](C7=CC(=O)OC7)CC[C@]65O)C4)O[C@@H]3C)O[C@@H]2C)C[C@H](O)[C@@H]1O
As to the kind of experiment: cells, lysate or membranes named.

The IC50 is the point on the concentration scale where inhibition reaches its midpoint. A high value points to weaker potency. `C[C@H]1O[C@@H](O[C@H]2[C@@H](O)C[C@H](O[C@H]3[C@@H](O)C[C@H](O[C@H]4CC[C@@]5(C)[C@H](CC[C@@H]6[C@@H]5CC[C@]5(C)[C@@H](C7=CC(=O)OC7)CC[C@]65O)C4)O[C@@H]3C)O[C@@H]2C)C[C@H](O)[C@@H]1O` [DIGITOXIN] registered a concentration for half-maximal inhibition (IC50) in series [1] of 120 nM. In turn, `C[C@]12CC[C@H](O)C[C@H]1CC[C@@H]1[C@@H]2C[C@@H](O)[C@]2(C)[C@@H](C3=CC(=O)OC3)CC[C@]12O` [DIGOXIGENIN] gave an IC50 in series [1] of 490 nM.

`N[C@@H](Cc1cc(I)c(Oc2cc(I)c(O)c(I)c2)c(I)c1)C(=O)O` [LEVOTHYROXINE] displayed an IC50 in series [2] of 8000 nM.

B1: Solute carrier organic anion transporter family member 4C1 (Homo sapiens) (protein)
chain: T1 sequence (Q6ZQN7 whole entry)
Usually Km stands for the substrate concentration at which the rate is half of its maximum. As for B1, the Km in series [3] worked out at 5.9 µM; in series [4], 7.8 µM.
